Patent US5990096A (priority 1992, dated 1999)

How the values were obtained:
[1] = in vivo
Fisher Bladder Carcinoma = experiment: Intratumour injection study: radioactivity remaining in tumor tissue; format: in vivo, Fisher 344 rat; details: intratumor injection
Description: (§1) 1. These drugs were administrated by intratumor injection. (right frank)
(§2) Group A:H-5-FU 5 mg/kg+saline/0.3 ml (i.t.)
(§3) B:H-5-FU 5 mg/kg+HA 15 mg/kg/0.3 ml (s.c.)
(§4) 3H-FU without or with HA was injected as a single dose (0.3 ml) into the center of the tumor (on the right frank) with a 30 gause needle. At the same time, injection into normal skin (on the left frank) was carried out similarly.
(§5) The tumor and skin was then removed at different times (1 h,6 hr) for counting radioactivity of the remaining content in the tissue.

[2] = Intratumour injection study: radioactivity remaining in normal skin; format: in vivo, Fisher 344 rat; details: injection into normal skin
Description: as §1
At the same time, injection into normal skin (left frank) was carried out similarly.
as §2, §3, §4, §5

Compound	Side effects [1]	Radioactivity retention in tumor tissue (Fisher Bladder Carcinoma)	Radioactivity clearance from normal tissue (skin) [2]
O=C(O)Cc1ccccc1Nc1c(Cl)cccc1Cl [Oral diclofenac acid]	gastritis		
O=c1[nH]cc(F)c(=O)[nH]1 [Formulation 3H-5FU, 5-Fluoracil]		immediately disappeared	immediately disappeared
